Measurements from article PMC7822874, “Chemoprotective antimalarials identified through quantitative high-throughput screening of Plasmodium blood and liver stage parasites” (Scientific Reports, 2021).
Read-outs that look alike come from different tables or passages of the source.

Legend:
in vitro = details: human
[1] = test system: Plasmodium falciparum Dd2 asexual blood stage parasites; assay: microbe, parasite or virus in culture; design: species or system Plasmodium falciparum Dd2 in human erythrocytes; single determination (one 11-point concentration-response curve); details: Plasmodium falciparum, DD2, Erythrocyte, 72 h
[2] = test system: P. berghei-ANKA-GFP-LucCON liver stage parasites in HepG2-A16-CD81EGFP cells; assay: P. berghei liver stage Pb-Luc assay, Method 1 (UCSD, 1536-well); format: cell-based, Plasmodium berghei; details: for activity at 1 µM / activity at 3 µM: 48 h, average of 2 wells on a 1536 well plate; for activity at 1 µM: 1 uM (compounds provided at 10 mM); for activity at 3 µM: 3 uM (compounds provided at 10 mM)
[3] = HepG2-A16-CD81EGFP cells, uninfected
[4] = Plasmodium berghei, column 11, read-out: Pb-Luc (P. berghei liver stage), % of control, lower concentration, first repeat
[5] = Plasmodium berghei, column 12, read-out: Pb-Luc (P. berghei liver stage), % of control, lower concentration, second repeat
[6] = Plasmodium berghei, column 8, read-out: Pb-Luc (P. berghei liver stage), % of control, higher concentration, first repeat
[7] = Plasmodium berghei, column 9, read-out: Pb-Luc (P. berghei liver stage), % of control, higher concentration, second repeat

SMILES	AC50 ([1]; read-out: AC50) [µM]	other results
CCOc1cc(C2NCc3ccccc3-n3cccc32)ccc1O (stereo not shown) [MLS000047991-01]		viability at 48 h, 1 µM (in vitro): 97%; viability at 48 h, 3 µM (in vitro): 95%
COc1ccc(CCn2c(=N)c(C(=O)NC3CCCCC3)cc3c(=O)n4ccccc4nc32)cc1 [MLS001146200-01]		viability at 48 h, 1 µM (in vitro; [3]): 102%; viability at 48 h, 3 µM (in vitro; [3]): 98%
CCOC(=O)C1=C(C)NC2=C(C(=O)CCC2)C1c1cn(Cc2ccc(Cl)cc2Cl)nc1-c1ccccc1 (stereo not shown) [MLS000324811-01]		viability at 48 h, 1 µM (in vitro; [3]): 106%; viability at 48 h, 3 µM (in vitro; [3]): 96%
COc1ccccc1NC(=O)Cn1c(C)ccc(N[S+](=O)([O-])c2ccccc2)c1=O [NCGC00430868-01]		viability at 66 h (in vitro; [3]): 109%
CCOc1cc(CNC(C)C(O)c2ccccc2)cc(Cl)c1OCC (stereo not shown) [MLS000701716-01]		viability at 48 h, 1 µM (in vitro): 90%; viability at 48 h, 3 µM (in vitro): 88%
O=C(Cc1c[nH]c2ncc(-c3ccc(Cl)cc3)cc12)NCc1cccnc1 [NCGC00412438-01]	1.72	Max Resp (signal direction of the dose response) ([2]; Method 1, Decrease = decreasing P. berghei viability with dose, Increase = increasing signal, Inactive = no dose response): Decrease; AC50 ([2]; Method 1, Hill fit, 50% of maximum activity response, read-out: AC50): 2 µM; Log AC50 (M) ([2]; Method 1, log10 of molar AC50 from Hill fit): -5.700 M; AC50 ([2]; Plasmodium berghei, Method 1, Hill fit, 50% of maximum activity response, read-out: AC50): 1.26 µM; AC50 ([2]; Plasmodium berghei, Method 1, log10 of molar AC50 from Hill fit, read-out: Log AC50 (converted)): 1.26 µM
CC(C)c1ccc(O)c(CN2CCN(c3ccccc3)CC2)c1 [MLS000084718-01]		AC50 [1]: 1.33 µM; activity at 1 µM [2, 4]: 105%; activity at 1 µM [2, 5]: 80%; activity at 3 µM [2, 6]: 97%; activity at 3 µM [2, 7]: 96%
COc1cccc(OCCn2cc(C(=O)c3ccco3)c3ccccc32)c1 [MLS000050800-01]		activity at 1 µM [2, 4]: 134%; activity at 1 µM [2, 5]: 132%; activity at 3 µM [2, 6]: 134%; activity at 3 µM [2, 7]: 113%
Oc1c(Br)cc(Br)cc1CN1CCN(Cc2ccccc2)CC1 [MLS000530313-01]	1.06	activity at 1 µM [2, 4]: 129%; activity at 1 µM [2, 5]: 112%; activity at 3 µM [2, 6]: 102%; activity at 3 µM [2, 7]: 112%
CCOC(=O)c1nnn(-c2nonc2N)c1-c1ccc(C)cc1 [MLS000519435-01]	5.31	activity at 1 µM [2, 4]: 122%; activity at 1 µM [2, 5]: 101%; activity at 3 µM [2, 6]: 135%; activity at 3 µM [2, 7]: 119%
Cc1noc(C)c1-c1nccc2c(=O)cc(N(C)c3ccccc3)oc12 [NCGC00416678-01]	17.2	
c1ccc2c(c1)CNC1(CCN(Cc3cccc4ccccc34)CC1)CO2 [NCGC00477546-01]	7.5	
Cc1cccc(-c2cc(C(=O)Nc3ccncc3)c3ccccc3n2)c1 [MLS001147429-01]	8.41	
COc1ccc(OC)c(NC(=O)c2cc(-c3cc(Cl)ccc3O)n[nH]2)c1 [MLS000083936-01]	4.73	
O=C(c1nnc(CNc2ccncc2)n1-c1ccccc1)N1CCC[C@@H]1C(c1ccccc1)c1ccccc1 [NCGC00415781-01]	10.6	
Cc1ccc2nc(-c3ccccc3O)c(Nc3ccccc3C)n2c1 [NCGC00106804-01]	2.37	
COc1ccc(Nc2c(-c3cc(Br)ccc3O)nc3ncccn23)cc1OC [NCGC00107676-01]	4.73	
CCOC(=O)c1cc2c(=O)n3ccccc3nc2n(CC(C)C)/c1=N\C(=O)COc1ccc(Cl)cc1 [NCGC00104075-01]	10.6	
Cc1ccc(NC(=O)N(Cc2ccc3c(c2)OCO3)Cc2cc3cc4c(cc3[nH]c2=O)OCCO4)cc1 [MLS000033889-01]	6.68	
CCOc1ccc(CCNC(=O)c2ccc3c(c2)N(Cc2ccccc2F)C(=O)c2ccccc2[S+]3[O-])cc1OCC (stereo not shown) [NCGC00109590-01]	10.6	
CC(C)c1ccc(-c2noc(SCC(=O)N(C)c3ccc(F)cc3)n2)cc1 [NCGC00127932-01]	0.944	
COc1ccc(C2c3ccc(O)cc3Oc3ncn4nc(-c5ccncc5)nc4c32)cc1OC (stereo not shown) [MLS000778948-01]	15	
Cc1cccc(OCC(=O)NCC2(N3CCN(C)CC3)CCCCC2)c1C [NCGC00118605-01]	6.68	
Cc1ccc(CNCC(O)(c2ccccc2)c2ccc(Cl)cc2)cc1 (stereo not shown) [MLS000721405-01]	2.99	
COc1ccccc1N1CCN(C(=O)CSc2nc(-c3ccc(C(C)C)cc3)no2)CC1 [NCGC00127900-01]	0.376	
O=C(Nc1ccc(Cl)cc1)Nc1nc(-c2ccccc2O)cs1 [MLS000774885-01]	6.68	
CC(C)C[C@@H](NC(=O)[C@@H](O)[C@H](N)Cc1ccccc1)C(=O)O [NCGC00093685-01]	2.99	
COc1cc2nc(NCCC(C)C)n3nc(-c4ccccc4)nc3c2cc1OC [NCGC00112851-01]	0.422	

SMILES	AC50 ([1]; read-out: AC50) [µM]	other results
CC(C(=O)NC1CCCC1)N1CCN(S(=O)(=O)c2ccc(C(C)(C)C)cc2)CC1 (stereo not shown) [MLS002169740-01]	8.41	
O=C(NCc1ccco1)c1ccc2c(c1)N(Cc1c(F)cccc1Cl)C(=O)c1ccccc1S2 [NCGC00108150-01]	13.3	
COc1ccc(-c2cc(C[C@@H]3CC[C@H](O)[C@@H](CNCc4ccccc4OC)O3)no2)cc1 [NCGC00421057-01]	3.44	
COc1ccc(CC(=O)N2CCC(Oc3ncccc3C(=O)N3CCCCC3)C2)cc1 (stereo not shown) [NCGC00434230-01]	9.44	
CC(C)C(=O)N1Cc2ccccc2OC2(CCN(C(C)C)CC2)C1 [NCGC00456474-01]	10.6	
CCc1cc(C(=O)OC)c(NC(=O)CN2CCN(C(=O)c3ccco3)CC2)s1 [MLS001034503-01]	5.96	
COc1cccc(C2=C(C(C)=O)Sc3nnc(C4CCCCC4)n3N2C(C)=O)c1 [NCGC00137294-01]	4.73	
CC(Oc1ccccc1)C(=O)Nc1nc(-c2ccccn2)cs1 (stereo not shown) [MLS002158763-01]	8.41	
N#Cc1cccc(C(=O)N2CCCN(Cc3ccncc3)C(c3ccccc3)CC(=O)NCC2)c1 (stereo not shown) [NCGC00467150-01]	7.5	
CCOc1cc(C(=O)N2CCC(CC3CC(c4ccc(Cl)cc4)=NO3)(C(=O)NCC3CCCCC3)CC2)cc(OCC)c1OCC (stereo not shown) [MLS001143937-01]	0.841	
CCCCCCSc1ccc([C@@H]2[C@H]3C(=O)N(CC)C(=O)[C@H]3[C@]3(C(=O)OC)CCCCN23)cc1OC [MLS001362153-01]		AC50 [1]: 15 µM
CCc1nc(NC(=O)C2c3ccccc3C(=O)N(CCOC)C23CCCC3)sc1C (stereo not shown) [NCGC00423528-01]	5.96	
COc1ccc(S(=O)(=O)N2CCN(/C(S)=N/C3CCCCC3)CC2)cc1 [MLS000690529-01]	6.68	
Cc1ccc([S+](=O)([O-])N2CCC(OC3CCN(Cc4ccccc4)CC3)CC2)cc1C [NCGC00444948-01]	15	
COc1cccc(CC(=O)N2CCCn3nc(C)c(-c4ccccc4OCc4ccccc4)c32)c1 [NCGC00420361-01]	9.44	
O=C(c1ccc(-c2ncc3cnc(-c4ccccc4)cn23)cc1)N1CCc2cccnc21 [NCGC00413975-01]	17.2	
CCOC(=O)c1c(CN2CCOCC2)n(-c2ccccc2)c2cc(Br)c(O)cc12 [MLS000530556-01]	2.99	
O=C(Nc1ccccc1)[C@H]1O[C@H](CCN2CCN(c3ccc(F)cc3)CC2)CC[C@@H]1O [NCGC00391966-01]	10.9	
COc1ccc(-c2cc(N3CCN(C(=O)c4c[nH]c5ccccc45)CC3)[nH]n2)cc1 [NCGC00436860-01]	15	
Cc1nc2c(n1C1CCCCC1)C(=O)c1ccccc1C2=O [MLS000564113-01]		activity at 1 µM [2, 4]: 95%; activity at 1 µM [2, 5]: 107%; activity at 3 µM [2, 6]: 85%; activity at 3 µM [2, 7]: 94%
COc1cccc(Nc2ccc3c(n2)C(C)(C(=O)N2CCN(C)CC2)CN(C)C3)c1 (stereo not shown) [NCGC00414535-01]	15.3	
CN(Cc1ccccc1)C(=O)[C@H]1O[C@H](CCN2CCN(c3ccc(F)cc3)CC2)CC[C@@H]1O [NCGC00401502-01]	5.96	
COc1ccc(CCNC(=O)Cn2c(-c3cccs3)cc3cc(F)ccc32)cc1OC [NCGC00111974-01]	4.73	
CCC(C)(C)n1nnnc1C(c1cc2cccc(C)c2nc1O)N1CCN(C(=O)c2ccco2)CC1 (stereo not shown) [MLS000073230-01]	6.68	
CCN(C(=O)CSc1nc(-c2ccc(C(C)C)cc2)no1)c1ccccc1 [NCGC00127904-01]	0.944	
Cc1nc(CN2C(=O)OC3(CCN(C(=O)Cc4ccc5c(c4)OCO5)CC3)C2(C)c2ccccc2)cs1 (stereo not shown) [NCGC00415487-01]	2.11	
COc1cc(O)c(C(CCN2CCCCC2)c2cc(OC)c(OC)c(OC)c2)c(OC)c1 (stereo not shown) [MLS000879476-01]	2.66	
